This note sets out measurements from ChEMBL document CHEMBL1147006, “Synthesis, characterization and antiamoebic activity of 1-(thiazolo[4,5-b]quinoxaline-2-yl)-3-phenyl-2-pyrazoline derivatives” (Bioorg Med Chem Lett, 2006).

For the test, the system named is Entamoeba histolytica. The experiment in a line: Antiamoebic activity against Entamoeba histolytica HM-1:IMSS. The class given is functional, organism-based.
Turning to `CC1CN(c2nc3nc4ccccc4nc3s2)N=C1c1cccc(Br)c1` (stereo unspecified), the IC50 came to 1.45 µM. That is a single-digit micromolar value. Next, `Clc1cccc(C2=NN(c3nc4nc5ccccc5nc4s3)CC2)c1`: 1.09 µM.

Regarding `CC1CN(c2nc3nc4ccccc4nc3s2)N=C1c1ccccc1` (stereo unspecified), the IC50 was determined as 2.34 µM. Then `CC1CN(c2nc3nc4ccccc4nc3s2)N=C1c1cccc(Cl)c1` (stereo unspecified), with 0.72 µM; and `NC(=S)N1CCC(c2ccccc2)=N1`, with 17.2 µM; and `c1ccc(C2=NN(c3nc4nc5ccccc5nc4s3)CC2)cc1`, with 6.76 µM. With `Brc1cccc(C2=NN(c3nc4nc5ccccc5nc4s3)CC2)c1`, the IC50 was 4.98 µM. Next, `NC(=S)N1CCC(c2cccc(Br)c2)=N1`: 13.2 µM; `CC1CN(C(N)=S)N=C1c1ccccc1` (stereo unspecified): 10.2 µM; `NC(=S)N1CCC(c2cccc(Cl)c2)=N1`: 8.7 µM. `Cc1ncc([N+](=O)[O-])n1CCO` [METRONIDAZOLE] yielded an IC50 of 1.69 µM. This IC50 lies about 5.1-fold lower than the previous one.
